One may read the IC50 as the point on the concentration scale where inhibition reaches its midpoint.

Here are results for 41 molecules from patent publication US7452997B2 (priority 2004, dated 2008).

Like-named read-outs stand apart in the source and are kept apart here.

For test [1], the target named is T1, human CB1 receptor (Homo sapiens, UniProt P21554).
T1 construct: expressed in transfected cells; host or cells: SK-N-MC cells, stably transfected with pcDNA3 CB-1 (human); semi-purified membrane pellet
The experiment in a line: biochemical. The format is binding. The procedure:
(§1) Binding Assay for CB1 or CB2 Agonists or Inverse Agonists
(§2) The human CB1 and CB2 receptors were stably expressed in SK-N-MC cells transfected with pcDNA3 CB-1 (human) or pcDNA3 CB-2 (human). The cells were grown in T-180 cell culture flasks under standard cell culture conditions at 37° C. in a 5% CO2 atmosphere. The cells were harvested by trysinization and homogenized in a homogenization buffer (10 mM Tris, 0.2 mM MgCl2, 5 mM KCl, with protease inhibitors aprotinin, leupeptin, pepstatin A and bacitracin) and centrifuged (2000 g). The supernatant was then centrifuged in 2M sucrose (31,300 g) to produce a semi-purified membrane pellet. The pellet was resuspended in homogenization and store at −80° C.
On the day of the assay, the pellet was thawed on ice and diluted in assay buffer (50 mM Tris-HCl, 5 mM MgCl2, 2.5 mM EDTA, 0.5 mg/mL fatty acid free bovine serum albumin, pH 7.5). […] The plate was covered and incubated for 90 minutes at 30° C. The contents were then aspirated onto a Packard […] GF/C filter bottom plate prewet with 0.5% polyethyleneimine. The wells of the polypropylene plate were rinsed and aspirated seven times with a 0.9% saline-0.5% TWEEN 20 solution. The […] plate was dried, a scintillation cocktail was added to each well and the counts representing binding were quantitated in a TOPCOUNT scintillation counter.
(§3) The IC50 binding values for compounds tested were calculated by linear regression and were obtained from studies in which varying compound concentrations were used.

Test [2] addresses human CB2 receptor (Homo sapiens, UniProt P34972). The experiment in a line: Binding assay, cannabinoid CB2 receptor ([3H]-CP-55,940 displacement). As to conditions: SK-N-MC cell membranes, radioligand CP-55,940 0.2 nM. The procedure:
as §1, §2
On the day of the assay, the pellet was thawed on ice and diluted in assay buffer (50 mM Tris-HCl, 5 mM MgCl2, 2.5 mM EDTA, 0.5 mg/mL fatty acid free bovine serum albumin, pH 7.5). The diluted membrane was added with buffer, test compound or standard and the radioligand [H]^3+-CP-55,940_(0.2 nM) to the wells of a 96-well polypropylene plate. Non-specific binding was measured in wells containing 10 uM WIN 55,212. The plate was covered and incubated for 90 minutes at 30° C. The contents were then aspirated onto a Packard UNIFILTER GF/C filter bottom plate prewet with 0.5% polyethyleneimine. The wells of the polypropylene plate were rinsed and aspirated seven times with a 0.9% saline-0.5% TWEEN 20 solution. The UNIFILTER plate was dried, a scintillation cocktail was added to each well and the counts representing binding were quantitated in a TOPCOUNT scintillation counter.
as §3

[3] abbreviates: Cannabinoid CB2 Receptor Binding IC50, human CB2 receptor.
[4] abbreviates: human CB2 receptor, read-out: Cannabinoid CB2 Receptor Binding IC50.

Chain of human CB2 receptor (P34972 whole entry): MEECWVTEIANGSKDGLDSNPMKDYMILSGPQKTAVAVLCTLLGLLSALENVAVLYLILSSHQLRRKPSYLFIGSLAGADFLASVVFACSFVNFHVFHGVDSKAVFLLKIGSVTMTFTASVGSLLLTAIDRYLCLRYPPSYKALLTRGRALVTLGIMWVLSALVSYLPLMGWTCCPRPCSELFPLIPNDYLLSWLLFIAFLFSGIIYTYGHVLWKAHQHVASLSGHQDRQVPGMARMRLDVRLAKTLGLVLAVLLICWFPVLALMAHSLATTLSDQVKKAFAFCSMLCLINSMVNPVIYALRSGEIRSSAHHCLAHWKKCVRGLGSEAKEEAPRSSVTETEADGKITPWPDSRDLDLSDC
T1 sequence (P21554 whole entry): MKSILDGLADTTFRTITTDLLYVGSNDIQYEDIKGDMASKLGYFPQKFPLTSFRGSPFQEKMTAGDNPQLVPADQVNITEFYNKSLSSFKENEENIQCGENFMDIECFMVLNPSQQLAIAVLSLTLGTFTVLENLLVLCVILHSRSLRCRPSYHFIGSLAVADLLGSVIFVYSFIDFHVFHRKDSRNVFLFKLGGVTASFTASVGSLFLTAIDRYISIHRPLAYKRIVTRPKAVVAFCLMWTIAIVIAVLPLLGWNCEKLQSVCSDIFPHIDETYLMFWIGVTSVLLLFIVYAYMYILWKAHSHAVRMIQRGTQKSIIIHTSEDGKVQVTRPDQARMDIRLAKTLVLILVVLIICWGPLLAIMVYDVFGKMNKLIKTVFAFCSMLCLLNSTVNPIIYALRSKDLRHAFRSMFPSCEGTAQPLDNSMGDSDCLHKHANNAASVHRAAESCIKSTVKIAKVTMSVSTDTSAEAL

For `CC12CCC(C1)C(C)(C)C2NC(=O)CCc1nn(C2CCCCC2)c2c1CCCC2` (centres unmarked) [Cpd 50, 3-(1-cyclohexyl-4,5,6,7-tetrahydro-1H-indazol-3-yl)-N-(1,3,3-trimethyl-bicyclo[2.2.1]hept-2-yl)-propionamide], the half-inhibitory concentration (IC50) in test [1] came out at 255 nM; in test [2] (setting [3]), 13 nM. On to `O=C(N[C@H]1CCCC[C@H]1CO)c1nn(C2CCCCC2)c2c1CCCC2Cl` (stereo partly drawn) [Cpd 60, 7-chloro-1-cyclohexyl-4,5,6,7-tetrahydro-1H-indazole-3-carboxylic acid [(1S,2R)-2-hydroxymethyl-cyclohexyl]-amide], for which the results for the IC50 in test [1] and in test [2] (setting [3]) were 5230 nM and 515 nM, respectively. In the case of `CC(C)(Cc1nn(C2CCCCC2)c2c1CCCC2)C(=O)NC1C2CC3CC(C2)CC1C3` (centres unmarked) [Cpd 66, N-adamantan-2-yl-3-(1-cyclohexyl-4,5,6,7-tetrahydro-1H-indazol-3-yl)-2,2-dimethyl-propionamide], the results for the IC50 in test [1] and in test [2] (setting [3]) were 3590 nM and 1400 nM, respectively.

Take `CC(C)(C)OC(=O)NC1CCc2c(c(C(=O)NC3C4(C)CCC(C4)C3(C)C)nn2C2CCCCC2)C1` (centres unmarked) [Cpd 86, [1-cyclohexyl-3-(1,3,3-trimethyl-bicyclo[2.2.1]hept-2-ylcarbamoyl)-4,5,6,7-tetrahydro-1H-indazol-5-yl]-carbamic acid tert-butyl ester]: the IC50 in test [2] (setting [3]) amounted to 275 nM.

Take `CN(C)C(=O)NC1CCc2c(c(C(=O)NC3C4CC5CC(C4)CC3C5)nn2C2CCCCC2)C1` (centres unmarked) [Cpd 89, 1-cyclohexyl-5-(3,3-dimethyl-ureido)-4,5,6,7-tetrahydro-1H-indazole-3-carboxylic acid adamantan-2-ylamide]: the figures for the IC50 in test [1] and in test [2] (setting [3]) were 3700 nM and 1.4 nM, respectively. Taken in the same sequence, the figures for `CC12CCC(C1)C(C)(C)C2NC(=O)c1nn(C2CCCCC2)c2c1CC(N)CC2` (centres unmarked) [Cpd 92, 5-amino-1-cyclohexyl-4,5,6,7-tetrahydro-1H-indazole-3-carboxylic acid (1,3,3-trimethyl-bicyclo[2.2.1]hept-2-yl)-amide] were 1600 nM and 90 nM. Taken in the same sequence, the figures for `CC12CCC(C1)C(C)(C)C2NC(=O)c1nn(C2CCCCC2)c2c1CC(O)CC2` (centres unmarked) [Cpd 93, 1-cyclohexyl-5-hydroxy-4,5,6,7-tetrahydro-1H-indazole-3-carboxylic acid (1,3,3-trimethyl-bicyclo[2.2.1]hept-2-yl)-amide] were 1150 nM and 20 nM. Turning to `CCOC(=O)C1CCc2c(c(C(=O)NC(C)C34CC5CC(CC(C5)C3)C4)nn2C2CCCCC2)C1` (centres unmarked) [Cpd 132], the concentration for half-maximal inhibition (IC50) was determined as 2900 nM in test [1] and 25.5 nM in test [2] (setting [3]). Turning to `CC(NC(=O)c1nn(C2CCCCC2)c2c1CC(CO)CC2)C12CC3CC(CC(C3)C1)C2` (centres unmarked) [Cpd 143, 1-cyclohexyl-5-hydroxymethyl-4,5,6,7-tetrahydro-1H-indazole-3-carboxylic acid (1-adamantan-1-yl-ethyl)-amide], the results for the IC50 in test [1] and in test [2] (setting [3]) were 2400 nM and 1260 nM, respectively. Turning to `CCOC(=O)[C@H]1C2CCC(C2)[C@H]1NC(=O)c1nn(C2CCCCC2)c2c1CCCC2O` (stereo partly drawn) [Cpd 164, (2S,3R)-3-[(1-cyclohexyl-7-hydroxy-4,5,6,7-tetrahydro-1H-indazole-3-carbonyl)-amino]-bicyclo[2.2.1]heptane-2-carboxylic acid ethyl ester], the half-inhibitory concentration (IC50) in test [1] came out at 6010 nM; in test [2] (setting [3]) it was 490 nM.

Consider `COc1ccc(C(=O)CNC(=O)c2nn(C3CCCCC3)c3c2CCCC3)cc1` [Cpd 176], for which, in test [2] (setting [3]), the IC50 worked out at 4000 nM. On the same count and under the same terms, the same measure for `O=C(Nc1nn(C2CCCCC2)c2c1CCCC2)c1ccc2ccccc2c1` [Cpd 178, naphthalene-2-carboxylic acid (1-cyclohexyl-4,5,6,7-tetrahydro-1H-indazol-3-yl)-amide]: 2900 nM; for `O=C(Nc1nn(C2CCCCC2)c2c1CCCC2)NC12CC3CC(CC(C3)C1)C2` [Cpd 182, 1-adamantan-1-yl-3-(1-cyclohexyl-4,5,6,7-tetrahydro-1H-indazol-3-yl)-urea]: 28 nM. In test [2] (setting [3]), `CC(C)(C)CC(C)(C)NC(=O)C1CCc2c(c(C(=O)NC3C4CC5CC(C4)CC3C5)nn2C2CCCCC2)C1` (centres unmarked) [Cpd 228, 1-cyclohexyl-4,5,6,7-tetrahydro-1H-indazole-3,5-dicarboxylic acid 3-adamantan-2-ylamide 5-[(1,1,3,3-tetramethyl-butyl)-amide]] registered an IC50 of 250 nM. The same measure, in the same setting: the same measure for `C[C@@H](NC(=O)C=Cc1nn(Cc2ccccc2)c2c1CCCC2)c1ccccc1` [Cpd 306, 3-(1-benzyl-4,5,6,7-tetrahydro-1H-indazol-3-yl)-N-[(1R)-1-phenyl-ethyl]-acrylamide]: 1800 nM. On to `COC(=O)C(Cc1ccc(OCc2ccccc2)cc1)NC(=O)c1c2c(nn1-c1ccc(OC)cc1)CCCC2` (centres unmarked) [compound 4], for which the IC50 in test [2] (setting [4]) came out at 3690 nM. For `COc1ccc(-n2nc3c(c2C(=O)NCCc2ccc(N)cc2)CCCC3)cc1` [compound 8], the IC50 in test [2] (setting [4]) was found to be 21200 nM. `CN1C2CCC1CC(NC(=O)c1nn(C3CCCCC3)c3c1CCCC3)C2` (centres unmarked) [compound 46] gave an IC50 in test [2] (setting [3]) of 9200 nM. `CCOC(=O)c1c(NC(=O)c2nn(C3CCCCC3)c3c2CCCC3)sc2c1CCCCC2` [compound 55] had a half-maximal inhibitory concentration (IC50) in test [2] (setting [3]) of 7900 nM. Still for that read-out and setting: then `CCOC(=O)c1c(NC(=O)c2nn(C3CCCCC3)c3c2CCCC3)sc2c1CCC2` [compound 56], with 20000 nM; and `CC(C)(C)C1CCc2c(c(C(=O)NC3C4(C)CCC(C4)C3(C)C)nn2-c2ccccc2)C1` (centres unmarked) [compound 111], with 170 nM; and `CC(C)(C)C1CCc2c(c(C(=O)NC34CC5CC(CC(C5)C3)C4)nn2-c2ccccc2)C1` (centres unmarked) [compound 113], with 770 nM. The molecule `C[C@@H](NC(=O)c1nn(-c2ccccc2)c2c1CC(C(C)(C)C)CC2)C1CCCCC1` (some centres unmarked) [compound 114] had a concentration for half-maximal inhibition (IC50) in test [2] (setting [3]) of 530 nM.

Take `CCOC(=O)C1CCc2c(c(C(=O)NC3C4CC5CC(C4)CC3C5)nn2-c2ccccc2)C1` (centres unmarked) [compound 115]: in test [2] (setting [3]), the IC50 worked out at 180 nM.

The molecule `CCOC(=O)C1CCc2c(c(C(=O)NCC34CC5CC(CC(C5)C3)C4)nn2-c2ccccc2)C1` (centres unmarked) [compound 117] displayed a concentration for half-maximal inhibition (IC50) in test [2] (setting [3]) of 370 nM. With `CCOC(=O)C1CCc2c(c(C(=O)NC34CC5CC(CC(C5)C3)C4)nn2-c2ccccc2)C1` (centres unmarked) [compound 118], in test [2] (setting [3]), the IC50 was 400 nM. With `CCN(C(=O)c1c2c(nn1-c1ccc(OC)cc1)CCCC2)c1ccccc1OC` [compound 121], the IC50 in test [2] (setting [4]) worked out at 6270 nM. Regarding `O=C(NC1C2CCC(C2)C1C(=O)O)c1nn(C2CCCCC2)c2c1CC(C(=O)O)CC2` (centres unmarked) [compound 138], in test [2] (setting [4]), the IC50 was determined as 11800 nM. The molecule `CC12CCC(C1)C(C)(C)C2NC(=O)c1nn(-c2ccccn2)c2c1CCCC2` (centres unmarked) [compound 160] yielded an IC50 in test [2] (setting [3]) of 3500 nM.

In test [2] (setting [3]), `CC(NC(=O)c1nn(Cc2ccccc2)c2c1CC(C(=O)O)CC2)C12CC3CC(CC(C3)C1)C2` (centres unmarked) [compound 166] displayed an IC50 of 1700 nM.

As for `CC12CCC(C1)C(C)(C)C2NC(=O)c1nn(C2CCCCC2)c2c1CC(C(N)=O)CC2` (centres unmarked) [compound 170], in test [2] (setting [3]), the IC50 amounted to 300 nM.

Turning to `O=C(Nc1nn(C2CCCCC2)c2c1CCCC2)c1ccccc1` [compound 186], the concentration for half-maximal inhibition (IC50) in test [2] (setting [4]) is 2290 nM. In test [2] (setting [3]), `O=C(CNC(=O)c1nn(C2CCCCC2)c2c1CCCC2)c1ccccc1` [compound 188] yielded a concentration for half-maximal inhibition (IC50) of 5100 nM. In the case of `CCOC(=O)[C@H]1C2CCC(C2)[C@H]1NC(=O)c1nn(-c2ccc(F)cc2)c2c1CCCC2CC` (some centres unmarked) [compound 191], the half-maximal inhibitory concentration (IC50) in test [2] (setting [3]) turned out to be 190 nM. Regarding `O=C(NC1CN2CCC1CC2)c1nn(C2CCCCC2)c2c1CCCC2` (centres unmarked) [compound 225], the IC50 in test [2] (setting [4]) amounted to 650 nM. For `CCOC(=O)C1CCc2c(c(C(=O)NN3CCCCC3)nn2C2CCCCC2)C1` (centres unmarked) [compound 229], the IC50 in test [2] (setting [3]) came to 1300 nM. Still for that read-out and setting: the same measure for `O=C(NC1C2CC3CC(C2)CC1C3)c1nn(Cc2ccccc2)c2c1CC(C(=O)O)CC2` (centres unmarked) [compound 239]: 300 nM. On the same count and under the same terms, the same measure for `O=C(NCC(O)c1ccc(Br)cc1)c1nn(C2CCCCC2)c2c1CCCC2` (centres unmarked) [compound 240]: 1700 nM.

Take `C[C@@H](NC(=O)c1nn(C2CCCCC2)c2c1CC(NC(=O)OC(C)(C)C)CC2)C1CCCCC1` (some centres unmarked) [compound 286]: in test [2] (setting [3]), the half-maximal inhibitory concentration (IC50) came to 2700 nM. On to `O=C(NNC1CCCCCCC1)c1nn(-c2ccc(F)cc2)c2c1CCCC2` [compound 299], for which, in test [2] (setting [3]), the IC50 amounted to 5520 nM. Still for that read-out and setting: the same measure for `O=C(Nc1nn(Cc2ccccc2)c2c1CCCC2)NC12CC3CC(CC(C3)C1)C2` [compound 337]: 80 nM.
